What was measured:
α-glucosidase = α-glucosidase (Saccharomyces cerevisiae, UniProt P53341); test: In vitro α-glucosidase inhibition assay (p-nitrophenyl glucopyranoside substrate); assay type: biochemical; details: for inhibition at 500 µM: test compound 0.5mM, read-out: Percent Inhibition (0.5mM)
Description: The reaction was initiated by the addition of 10 μL of 0.5mM substrate(p-nitrophenyl glucopyranoside, Sigma Inc.). […] All experiments were carried out in triplicates (mean ± SEM, n=3).

Chain of α-glucosidase (P53341 whole entry): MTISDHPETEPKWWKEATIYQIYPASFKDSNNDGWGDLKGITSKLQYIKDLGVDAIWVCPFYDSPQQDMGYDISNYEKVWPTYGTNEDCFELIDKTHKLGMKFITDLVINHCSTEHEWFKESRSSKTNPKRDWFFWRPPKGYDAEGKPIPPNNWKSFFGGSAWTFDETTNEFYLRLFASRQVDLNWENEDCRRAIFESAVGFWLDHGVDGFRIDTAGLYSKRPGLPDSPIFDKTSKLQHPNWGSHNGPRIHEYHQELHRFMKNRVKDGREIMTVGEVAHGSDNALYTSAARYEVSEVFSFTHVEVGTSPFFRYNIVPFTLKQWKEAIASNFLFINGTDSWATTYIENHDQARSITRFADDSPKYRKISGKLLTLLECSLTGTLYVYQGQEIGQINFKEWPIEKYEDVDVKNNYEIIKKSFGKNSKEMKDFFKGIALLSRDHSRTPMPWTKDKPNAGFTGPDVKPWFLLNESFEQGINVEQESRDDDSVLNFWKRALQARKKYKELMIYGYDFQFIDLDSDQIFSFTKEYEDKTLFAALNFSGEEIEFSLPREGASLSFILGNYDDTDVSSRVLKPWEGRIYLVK

inhibition at 500 µM (α-glucosidase) [%] | melting point [°C] | α-glucosidase inhibitory activity (in words) (α-glucosidase) | Structure (SMILES)
86.3 | 164 |  | O=C(Cc1ccc(O)c(O)c1)NN=Cc1ccccc1O [Compound 1, (3,4-dihydroxyphenyl)-N'-(2-hydroxybenzylidene)acetohydrazide]
90.4 | 210 |  | O=C(Cc1ccc(O)c(O)c1)NN=Cc1ccc(O)cc1 [Compound 2, 2-(3,4-dihydroxyphenyl)-N'-(4-hydroxybenzylidene)acetohydrazide]
91.3 | 212 |  | O=C(Cc1ccc(O)c(O)c1)NN=Cc1ccc(O)c(O)c1 [Compound 3, N'-(3,4-dihydroxybenzylidene)-2-(3,4-dihydroxyphenyl)acetohydrazide]
95.7 | 198 |  | O=C(Cc1ccc(O)c(O)c1)NN=Cc1ccc(O)cc1O [Compound 4, N'-(2,4-dihydroxybenzylidene)-2-(3,4-dihydroxyphenyl)acetohydrazide]
96.1 | 212 |  | O=C(Cc1ccc(O)c(O)c1)NN=Cc1ccc(O)c(O)c1O [Compound 5, 2-(3,4-dihydroxyphenyl)-N'-(2,3,4-trihydroxybenzylidene)acetohydrazide]
86.4 | 189 |  | COc1cc(C=NNC(=O)Cc2ccc(O)c(O)c2)ccc1O [Compound 6, 2-(3,4-dihydroxyphenyl)-N'-(4-hydroxy-3-methoxybenzylidene)acetohydrazide]
91.7 | 204 |  | COc1cccc(C=NNC(=O)Cc2ccc(O)c(O)c2)c1O [Compound 7, 2-(3,4-dihydroxyphenyl)-N'-(2-hydroxy-3-methoxybenzylidene)acetohydrazide]
91 | 206 |  | COc1ccc(C=NNC(=O)Cc2ccc(O)c(O)c2)c(O)c1 [Compound 8, 2-(3,4-dihydroxyphenyl)-N'-(2-hydroxy-4-methoxybenzylidene)acetohydrazide]
83.3 | 184 |  | CCOc1cc(C=NNC(=O)Cc2ccc(O)c(O)c2)ccc1O [Compound 9, 2-(3,4-dihydroxyphenyl)-N'-(3-ethoxy-4-hydroxybenzylidene)acetohydrazide]
81.9 | 164 |  | CCOc1ccc(C=NNC(=O)Cc2ccc(O)c(O)c2)c(O)c1 [Compound 10, 2-(3,4-dihydroxyphenyl)-N'-(4-ethoxy-2-hydroxybenzylidene)acetohydrazide]
77.5 | 210 |  | Cc1ccc(C=NNC(=O)Cc2ccc(O)c(O)c2)cc1O [Compound 11, 2-(3,4-dihydroxyphenyl)-N'-(3-hydroxy-4-methylbenzylidene)acetohydrazide]
96.7 | 190 to 193 |  | COc1ccccc1C=NNC(=O)Cc1ccc(O)c(O)c1 [Compound 12, 2-(3,4-dihydroxyphenyl)-N'-(2-methoxybenzylidene)acetohydrazide]
95.2 | 198 |  | COc1ccc(C=NNC(=O)Cc2ccc(O)c(O)c2)cc1 [Compound 13, 2-(3,4-dihydroxyphenyl)-N'-(4-methoxybenzylidene)acetohydrazide]
92.2 | 210 |  | COc1ccc(C=NNC(=O)Cc2ccc(O)c(O)c2)cc1OC [Compound 14, 2-(3,4-dihydroxyphenyl)-N'-(3,4-dimethoxybenzylidene)acetohydrazide]
92.8 | 203 |  | CN(C)c1ccc(C=NNC(=O)Cc2ccc(O)c(O)c2)cc1 [Compound 15, (3,4-dihydroxyphenyl)-N'-(4-(dimethylamino)benzylidene)acetohydrazide]
84.1 | 201 |  | Cc1ccc(C=NNC(=O)Cc2ccc(O)c(O)c2)cc1 [Compound 16, 2-(3,4-dihydroxyphenyl)-N'-(4-methylbenzylidene)acetohydrazide]
72 | 210 |  | O=C(Cc1ccc(O)c(O)c1)NN=Cc1cccc2ccccc12 [Compound 17, 2-(3,4-dihydroxyphenyl)-N'-(naphthalen-1-ylmethylene)acetohydrazide]
85.3 | 164 |  | O=C(Cc1ccc(O)c(O)c1)NN=Cc1ccccc1Cl [Compound 18, N'-(2-chlorobenzylidene)-2-(3,4-dihydroxyphenyl)acetohydrazide]
79.4 | 198 |  | O=C(Cc1ccc(O)c(O)c1)NN=Cc1ccc(Cl)cc1 [Compound 19, N'-(4-chlorobenzylidene)-2-(3,4-dihydroxyphenyl)acetohydrazide]
84.4 | 196 |  | O=C(Cc1ccc(O)c(O)c1)NN=Cc1cccc(Cl)c1 [Compound 20, N'-(3-chlorobenzylidene)-2-(3,4-dihydroxyphenyl)acetohydrazide]
 | 262 | no inhibitory activity | O=C(Cc1ccc(O)c(O)c1)NN=Cc1c(Cl)cccc1Cl [Compound 22, N'-(2,6-dichlorobenzylidene)-2-(3,4-dihydroxyphenyl)acetohydrazide]
80.9 | 201 |  | O=C(Cc1ccc(O)c(O)c1)NN=Cc1ccc([N+](=O)[O-])cc1 [Compound 23, 2-(3,4-dihydroxyphenyl)-N'-(4-nitrobenzylidene)acetohydrazide]
82.7 | 204 |  | O=C(Cc1ccc(O)c(O)c1)NN=Cc1ccccc1[N+](=O)[O-] [Compound 24, 2-(3,4-dihydroxyphenyl)-N'-(2-nitrobenzylidene)acetohydrazide]
78.2 | 206 |  | O=C(Cc1ccc(O)c(O)c1)NN=Cc1cccc([N+](=O)[O-])c1 [Compound 25, 2-(3,4-dihydroxyphenyl)-N'-(3-nitrobenzylidene)acetohydrazide]
 | 204 |  | O=Cc1ccc(C=NNC(=O)Cc2ccc(O)c(O)c2)cc1 [Compound 26, 2-(3,4-dihydroxyphenyl)-N'-(4-formylbenzylidene)acetohydrazide]
 | 156 |  | O=C(Cc1ccc(O)c(O)c1)NN=Cc1ccco1 [Compound 27, 2-(3,4-dihydroxyphenyl)-N'-(furan-2-ylmethylene)acetohydrazide]
 | 198 |  | CSc1ccc(C=NNC(=O)Cc2ccc(O)c(O)c2)cc1 [Compound 28, 2-(3,4-dihydroxyphenyl)-N'-(4-(methylthio)benzylidene)acetohydrazide]

From publication PMC11102520, “Design, synthesis, molecular docking study, and α-glucosidase inhibitory evaluation of novel hydrazide–hydrazone derivatives of 3,4-dihydroxyphenylacetic acid” (Scientific Reports, 2024)
